According to publication PMC12024912, “Druggability Studies of Benzene Sulfonamide Substituted Diarylamide (E3) as a Novel Diuretic” (Biomedicines, 2025):
Where two headings read alike, the source gives them in different places.

Assays:
[1] = target: T1, rat UT-A1 (Rattus norvegicus, UniProt Q62668); assay: Transwell assay of UT-A1 inhibition in UT-A1-MDCK cells; assay type: cell-based; conditions: read-out: IC50 against UT-A1-mediated urea permeability
T1 construct: expressed in transfected cells
T1 sequence (Q62668 1-929): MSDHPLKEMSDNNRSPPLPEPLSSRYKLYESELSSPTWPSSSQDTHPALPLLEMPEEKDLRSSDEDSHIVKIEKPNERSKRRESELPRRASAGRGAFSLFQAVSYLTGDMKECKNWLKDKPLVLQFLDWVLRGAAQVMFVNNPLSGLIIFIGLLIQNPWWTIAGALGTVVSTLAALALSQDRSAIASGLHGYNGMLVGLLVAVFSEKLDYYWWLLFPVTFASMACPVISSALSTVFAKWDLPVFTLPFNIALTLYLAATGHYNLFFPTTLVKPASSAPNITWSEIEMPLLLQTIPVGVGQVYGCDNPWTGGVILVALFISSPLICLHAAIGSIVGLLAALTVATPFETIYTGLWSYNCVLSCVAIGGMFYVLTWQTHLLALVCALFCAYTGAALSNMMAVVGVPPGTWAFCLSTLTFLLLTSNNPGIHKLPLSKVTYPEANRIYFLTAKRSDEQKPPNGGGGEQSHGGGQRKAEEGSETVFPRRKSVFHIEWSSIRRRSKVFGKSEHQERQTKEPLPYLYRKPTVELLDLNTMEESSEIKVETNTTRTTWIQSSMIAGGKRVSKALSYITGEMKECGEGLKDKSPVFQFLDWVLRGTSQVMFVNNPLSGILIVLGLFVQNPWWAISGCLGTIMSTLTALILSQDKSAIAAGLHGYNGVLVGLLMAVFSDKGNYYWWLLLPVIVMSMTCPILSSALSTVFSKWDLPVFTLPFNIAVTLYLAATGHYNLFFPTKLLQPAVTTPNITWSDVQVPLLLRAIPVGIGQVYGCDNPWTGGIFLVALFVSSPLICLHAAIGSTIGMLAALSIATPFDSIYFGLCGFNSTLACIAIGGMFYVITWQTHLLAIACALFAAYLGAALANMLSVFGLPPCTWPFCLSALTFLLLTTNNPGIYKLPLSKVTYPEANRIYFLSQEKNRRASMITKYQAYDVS
Method: MDCK cells stably expressing rat UT-A1 or UT-B were cultured in DMEM supplemented with 10% FBS, and the mRNA levels of UT-A1 and UT-B were measured in our previous research. Urea flux was assessed according to previously established methods. MDCK cells (2 × 10^5 cells/cm^2) were grown on 12 mm collagen-coated Costar Transwell inserts (0.4 μm pore size, Corning) for 4 d at 37 °C in the presence of 5% CO2. Once the cells on the apical side formed a tight monolayer (transepithelial resistance 1 kΩ/cm^2), PBS (pH = 7.4, containing 10 μmol/L forskolin) with E3 or DMSO was added to the top (0.25 mL) and bottom (1 mL) compartments, and the cultures were incubated in the absence of urea for 30 min at 37 °C. As UT-B is located in the plasma membrane while UT-A1 resides in the cytoplasm, forskolin was used to stimulate the translocation of UT-A1 from the cytoplasm to the membrane for urea transport. Subsequently, the solution in the bottom compartment was replaced with PBS (pH 7.4, containing 10 μmol/L forskolin and E3 or DMSO) supplemented with 15 mmol/L urea. Apical fluid samples (5 μL) were collected at 0, 1, 3, 5, 10, 15, 20, 30, 40, 50, and 60 min. The samples were subjected to an assay for urea (Urea Colorimetric Assay Kit (Diacetyl Oxime Method), Elabscience, Wuhan, China) according to the kit procedure. Then, the inhibition rate was calculated as described previously.

[2] = Intestinal microbiota stability, rat; assay type: in vitro ADME; conditions: Sprague-Dawley
Method: Plasma from mice, rats, rabbits, and humans was obtained from blood after centrifugation at 3000 r/min for 10 min. Simulated gastric fluid (SGF, pH = 1, containing pepsin) and simulated intestinal fluid (SIF, pH = 6.8, containing trypsin) were configured previously in the experiments. SD rats and mice were collected, and after removing the mucus layer from the small intestine and colon, 20 times the volume of liquid bacterial culture medium was added. An intestinal microbiota suspension was obtained after anaerobic cultivation on a shaking table at 37 °C for 12 h. In the aforementioned systems, E3 was added at a final concentration of 1 μmol/L at 37 °C for different incubation times (0, 10, 20, 30, 60, 120, and 240 min). In liver metabolic stability assays, E3 was incubated with liver microsomes or liver homogenate from mice or rats for 60 min at 37 °C. The stop solution, 5 ng/mL tolbutamide (internal standard, IS) in acetonitrile, was added to stop the metabolic process. Post-centrifugation (18,000× g, 10 min, 4 °C), supernatants were subjected to liquid chromatography–tandem mass spectrometry (LC–MS/MS). Analyte-to-IS peak area ratios quantified residual percentages via Equation (2):Remaining% = (E3peak area/ISpeak area at different time)/(E3peak area/ISpeak area at 0 min) × 100%.(2)

[3] = target: T2, UT-B (Mus musculus, UniProt Q8VHL0); assay: Erythrocyte lysis assay for UT-B inhibition, mouse erythrocytes; assay type: cell-based
T2 construct: endogenous in cells; host or cells: erythrocytes from wild-type C57BL/6 mice
T2 sequence (Q8VHL0 1-384): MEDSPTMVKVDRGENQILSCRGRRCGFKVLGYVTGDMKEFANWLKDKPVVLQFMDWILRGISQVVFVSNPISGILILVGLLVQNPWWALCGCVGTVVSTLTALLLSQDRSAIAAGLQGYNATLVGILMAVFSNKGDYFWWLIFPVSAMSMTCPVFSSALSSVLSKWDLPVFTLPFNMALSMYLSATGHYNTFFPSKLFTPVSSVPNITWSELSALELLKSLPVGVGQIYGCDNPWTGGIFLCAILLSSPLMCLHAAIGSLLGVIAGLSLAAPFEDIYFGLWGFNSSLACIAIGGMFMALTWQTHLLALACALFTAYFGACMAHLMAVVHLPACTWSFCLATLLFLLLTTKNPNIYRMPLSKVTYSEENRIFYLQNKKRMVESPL
Method: The erythrocyte lysis assay was modified from a method described previously. Erythrocytes obtained from veins were diluted to a hematocrit value of 2% in hyperosmolar PBS containing 1.25 mol/L urea and 5 mmol/L glucose and incubated at r.t. for 2 h. Then, 99 μL erythrocyte suspension from a reservoir was added to each well of a 96-well round-bottom microplate, then 1 μL of the testing compound (500, 125, 31.25, 7.81, 1.95, 0.488, 0.122, 0.031, 0.0076 μmol/L dissolved in DMSO) was added to erythrocyte suspension and shook it up with microoscillator for 1 min. Following 5 min incubation, 20 μL erythrocyte suspension was transferred into 96-well black microplates preloaded with 180 μL isotonic PBS (10 mM, urea-free). Erythrocyte lysis was monitored at 710 nm optical density (OD710) for 6 min, with lysis rates calculated using control values from the same plate as Equation (1):Lysis (%) = 100 × (Aneg − Atest)/(Aneg − Apos)(1) where Atest is the absorbance value from the test well, Aneg is from a negative no-lysis control well, and Apos is from a positive full-lysis control.

CC(=O)c1ccc(C(=O)Nc2cccc(NS(=O)(=O)c3ccccc3)c2)o1 [Compound E3, 5-acetyl-N-(3-(phenylsulfonamido)phenyl)furan-2-carboxamide] gave an IC50 [1] of 18 nM, a remaining at 1 μmol/L ([2]; colon microbiota suspension, n=3, read-out: Rat colon microbiota (remaining %)) of 82.3% and a remaining at 1 μmol/L ([2]; small intestine microbiota suspension, n=3, read-out: Rat small intestine microbiota (remaining %)) of 87.4%. For the same molecule, the “maximum inhibition rate, mouse cells” value ([3]; erythrocyte lysis assay) was “approximately 100%”, the IC50 ([3]; erythrocyte lysis model, mouse, n = 3, means, read-out: IC50 (μM) Mouse) was 0.05 µM and the IC50 ([3]; red blood cell lysis assay, read-out: IC50 for UT-B-promoted urea transport, mice) was 0.0477 µM.
